Experimental data published in US7371766B2, “Curcumin analogs with anti-tumor and anti-angiogenic properties” (Emory University, priority 1999, dated 2008).
Where two headings read alike, the source gives them in different places. Values belong to the compound of their own block, whether it stands above or below them.

Experiments:
[1] = test system: RPMI-7951 human melanoma; test: Neutral Red Assay, cell viability, RPMI-7951; details: for viability at 5 µM / viability at 20 µM: Homo sapiens; for Neutral Red Uptake, % / Cell Viability: RPMI-7951; for Neutral Red Uptake, %: 72 hours; for Cell Viability: DMSO = 100
[2] = test system: Tissue Factor (TF) production by human prostate cancer cell line PC-3; test: TF ELISA, PC-3; type: cell-based; details: 20 μM; for TF (% of DMSO): DMSO = 100%; for TF: mean of triplicate and S.D., DMSO 203 ± 6
Description: (§1) Cells were treated with 1% Triton X-100 in PBS and left overnight at 4° C. overnight to solubilize TF. […] IMUBIND Tissue Factor ELISA Kit (American Diagnostica Inc, Greenwich, Conn.) was used to determine TF concentration in each sample. The ELISA was carried out according to manufacturer's procedure.

[3] = test system: Vascular Endothelial Growth Factor (VEGF) production by human prostate cancer cell line DU-145; test: VEGF ELISA, DU-145; type: cell-based; details: for VEGF (% of DMSO): DMSO = 100%
[4] = test system: Tissue Factor (TF) production by human prostate cancer cell line DU-145; test: TF ELISA, DU-145; type: cell-based; details: 20 μM; for TF (% of DMSO): DMSO = 100%; for TF: mean of triplicate and S.D., DMSO 7699 ± 406
Description: as §1

[5] = test system: Vascular Endothelial Growth Factor (VEGF) production by human melanoma cell line RPMI-7951; test: VEGF ELISA, RPMI-7951; details: for activity at 5 µM / activity at 20 µM: Homo sapiens, RPMI-7951, 72 h, read-out: VEGF; for VEGF ELISA / VEGF: RPMI-7951; for VEGF ELISA: DMSO control 3713
[6] = test system: Vascular Endothelial Growth Factor (VEGF) production by human prostate cancer cell line PC-3; test: VEGF ELISA, PC-3; type: cell-based; details: for VEGF (% of DMSO): DMSO = 100%
[7] = test system: RPMI 7951; test: Emory Laboratory Cell Screen, Neutral Red, RPMI 7951; type: cell-based, human; details: RPMI 7951, Melanoma, 72 hours, read-out: Median Growth Inhibitory Concentration (GI50)
Description: (§2) Human tumor and endothelial cell lines were treated for 72 hours with compounds at a minimum of four concentrations between 0.1 μM-40 μM. Neutral Red assay was used to calculate cell viability.

[8] = test system: Tissue Factor (TF) production by human breast cancer cell line MDA-MB-231; test: TF ELISA, MDA-MB-231; type: cell-based; details: 0.5 μM
Description: (§3) IMUBIND Tissue Factor ELISA Kit (American Diagnostica Inc, Greenwich, Conn.) was used to determine TF concentration in each sample. The ELISA was carried out according to manufacturer's procedure.

[9] = test system: Human tumor and endothelial cell lines; test: Emory Laboratory Cell Screen, mean over cell lines; type: cell-based; details: Mean over the Emory cell lines, 72 hours, read-out: Median Growth Inhibitory Concentration (GI50), Mean
Description: as §2

[10] = test system: MDA-MB-435; test: Emory Laboratory Cell Screen, Neutral Red, MDA-MB-435; type: cell-based, human; details: MDA-MB-435, Breast Cancer, 72 hours, read-out: Median Growth Inhibitory Concentration (GI50)
Description: as §2

[11] = test system: MDA-MB-231; test: Emory Laboratory Cell Screen, Neutral Red, MDA-MB-231; type: cell-based, human; details: MDA-MB-231, Breast Cancer, 72 hours, read-out: Median Growth Inhibitory Concentration (GI50)
Description: as §2

[12] = test system: HUVECS; test: Emory Laboratory Cell Screen, Neutral Red, HUVECS; type: cell-based, human; details: 72 hours, read-out: Median Growth Inhibitory Concentration (GI50)
Description: as §2

[13] = test system: Tissue Factor (TF) production by human melanoma cell line RPMI-7951; test: TF ELISA, RPMI-7951; type: cell-based
Description: as §3

[14] = RPMI-7951, 72 h, read-out: Neutral Red Uptake, %
[15] = RPMI-7951, read-out: Cell Viability
[16] = 20 μM, mean of triplicate and S.D., DMSO 18760 ± 2633
[17] = Table 4, 20 μM, mean of triplicate and S.D.
[18] = 5 μM, DMSO control 4197 (EF-25: 1045)
[19] = 20 μM, mean of triplicate and S.D., DMSO 2103 ± 100
[20] = Table 5, 5 μM, DMSO control 7054

SMILES: O=C(C=Cc1ccc(O)cc1)C=Cc1ccc(O)cc1 [EF1, 1,5-Bis(4-hydroxyphenyl)penta-1,4-dien-3-one]
viability at 5 µM [1, 14]: 92%
viability at 20 µM [1, 14]: 8%
viability at 5 µM [1, 15]: 98%
viability at 20 µM [1, 15]: 43%
TF (% of DMSO) [2]: (53%)
TF [2]: 107 ± 9 pg/mL
VEGF (% of DMSO) ([3]; 20 μM): (105%)
VEGF [3, 16]: 19616 ± 4624 pg/mL
VEGF ([3]; Table 4, 20 μM, DMSO = 100): 105%
VEGF [3, 17]: 19616 ± 4624 pg/mL
TF (% of DMSO) [4]: (167%)
TF [4]: 12879 ± 149 pg/mL
activity at 5 µM [5]: 61%
activity at 20 µM [5]: 0%
VEGF ELISA ([5]; 5 μM): 1923 pg/ml/well
VEGF [5, 18]: 2573 pg/mL
VEGF ELISA ([5]; 20 μM): 234 pg/ml/well
VEGF ([5]; 20 μM, DMSO control 4197): 0 pg/mL
VEGF (% of DMSO) ([6]; 20 μM): (15%)
VEGF [6, 19]: 325 ± 75 pg/mL
VEGF ([6]; Table 4, 20 μM, DMSO = 100): 15%
VEGF [6, 17]: 325 ± 75 pg/mL

SMILES: O=C(C=Cc1ccccc1O)C=Cc1ccccc1O [EF2, 1,5-Bis(2-hydroxyphenyl)penta-1,4-dien-3-one]
viability at 5 µM [1, 14]: 46%
viability at 20 µM [1, 14]: 7%
viability at 5 µM [1, 15]: 68%
viability at 20 µM [1, 15]: 42%
GI50 ([7]; Homo sapiens): 800 nM
TF ([8]; DMSO = 100): 82%
TF ([8]; DMSO control 45753): 37697 pg/mL
TF (% of DMSO) [2]: (36%)
TF [2]: 73 ± 10 pg/mL
GI50 ([9]; Homo sapiens, Endothelial cell): 1800 nM
VEGF (% of DMSO) ([3]; 20 μM): (40%)
VEGF [3, 16]: 7516 ± 1915 pg/mL
VEGF ([3]; Table 4, 20 μM, DMSO = 100): 40%
VEGF [3, 17]: 7516 ± 1915 pg/mL
TF (% of DMSO) [4]: (72%)
TF [4]: 5540 ± 364 pg/mL
GI50 ([10]; Homo sapiens): 3300 nM
GI50 ([11]; Homo sapiens): 1500 nM
GI50 ([12]; Homo sapiens, HUVEC): 1700 nM
activity at 5 µM [5]: 36%
activity at 20 µM [5]: 0%
VEGF ELISA ([5]; 5 μM): 1295 pg/ml/well
VEGF [5, 18]: 1522 pg/mL
VEGF ELISA ([5]; 20 μM): 84 pg/ml/well
VEGF ([5]; 20 μM, DMSO control 4197): 0 pg/mL
TF ([13]; 5 μM, DMSO = 100): 82%
TF ELISA ([13]; 5 μM, DMSO control 7054): 1009 pg/ml/well
TF ([13]; 20 μM, DMSO = 100): 14%
TF [13, 20]: 5780 pg/mL
TF ([13]; Table 5, 20 μM, DMSO control 7054): 1009 pg/mL
VEGF (% of DMSO) ([6]; 20 μM): (1%)
VEGF [6, 19]: 26 ± 44 pg/mL
VEGF ([6]; Table 4, 20 μM, DMSO = 100): 1%
VEGF [6, 17]: 26 ± 44 pg/mL

SMILES: O=C(C=Cc1cccc(O)c1)C=Cc1cccc(O)c1 [EF3, 1,5-Bis(3-hydroxyphenyl)penta-1,4-dien-3-one]
viability at 5 µM [1, 14]: 77%
viability at 20 µM [1, 14]: 8%
viability at 5 µM [1, 15]: 88%
viability at 20 µM [1, 15]: 43%
TF (% of DMSO) [2]: (69%)
TF [2]: 140 ± 8 pg/mL
VEGF (% of DMSO) ([3]; 20 μM): (138%)
VEGF [3, 16]: 25901 ± 620 pg/mL
VEGF ([3]; Table 4, 20 μM, DMSO = 100): 149%
VEGF [3, 17]: 25901 ± 620 pg/mL
TF (% of DMSO) [4]: (87%)
TF [4]: 6687 ± 188 pg/mL
activity at 5 µM [5]: 67%
activity at 20 µM [5]: 0%
VEGF ELISA ([5]; 5 μM): 2092 pg/ml/well
VEGF [5, 18]: 2827 pg/mL
VEGF ELISA ([5]; 20 μM): 230 pg/ml/well
VEGF ([5]; 20 μM, DMSO control 4197): 0 pg/mL
VEGF (% of DMSO) ([6]; 20 μM): (44%)
VEGF [6, 19]: 917 ± 261 pg/mL
VEGF ([6]; Table 4, 20 μM, DMSO = 100): 44%
VEGF [6, 17]: 917 ± 261 pg/mL

GI50 ([9]; Homo sapiens, Endothelial cell): 800 nM
GI50 ([11]; Homo sapiens): 800 nM
SMILES: CN1CC(=Cc2ccccc2O)C(=O)C(=Cc2ccccc2O)C1 [EF34, 3,5-Bis(2-hydroxybenzylidene)1-methyl4-piperidone]

GI50 [9]: 2900 nM
SMILES: COc1ccc(/C=C/C(=O)/C=C/c2ccc(OC)c(OC)c2)cc1OC [MD6]
Neutral Red Uptake, % ([1]; 5 μM): 97 % of control
Cell Viability ([1]; 5 μM): 101%
Neutral Red Uptake, % ([1]; 20 μM): 6 % of control
Cell Viability ([1]; 20 μM): 42%
GI50 [7]: 1900 nM
VEGF (% of DMSO) ([3]; 20 μM): (98%)
VEGF [3, 16]: 18428 ± 3377 pg/mL
VEGF ([3]; Table 4, 20 μM, DMSO = 100): 98%
VEGF [3, 17]: 18428 ± 3377 pg/mL
GI50 [12]: 3800 nM
VEGF ([5]; 5 μM, DMSO = 100): 76%
VEGF ELISA ([5]; 5 μM): 2826 pg/ml/well
VEGF [5, 18]: 3200 pg/mL
VEGF ([5]; 20 μM, DMSO = 100): 1%
VEGF ELISA ([5]; 20 μM): 273 pg/ml/well
VEGF ([5]; 20 μM, DMSO control 4197): 30 pg/mL
TF ([13]; 1 μM, DMSO = 100): 91%
TF ([13]; 1 μM, DMSO control 7054): 6400 pg/mL
TF ([13]; 5 μM, DMSO = 100): 25%
TF ELISA ([13]; 5 μM, DMSO control 7054): 1753 pg/ml/well
TF [13, 20]: 1753 pg/mL
VEGF (% of DMSO) ([6]; 20 μM): (87%)
VEGF [6, 19]: 1820 ± 283 pg/mL
VEGF ([6]; Table 4, 20 μM, DMSO = 100): 87%
VEGF [6, 17]: 1820 ± 283 pg/mL

GI50 [9]: 8100 nM
SMILES: COc1cc(C=C2CCCC(=Cc3ccc(O)c(OC)c3)C2=O)ccc1O [MD10]
Neutral Red Uptake, % ([1]; 5 μM): 82 % of control
Cell Viability ([1]; 5 μM): 91%
Neutral Red Uptake, % ([1]; 20 μM): 6 % of control
Cell Viability ([1]; 20 μM): 42%
GI50 [7]: 2200 nM
TF (% of DMSO) [2]: (0%)
TF [2]: 0 ± 0 pg/mL
VEGF (% of DMSO) ([3]; 20 μM): (42%)
VEGF [3, 16]: 7830 ± 2262 pg/mL
VEGF ([3]; Table 4, 20 μM, DMSO = 100): 42%
VEGF [3, 17]: 7830 ± 2262 pg/mL
TF (% of DMSO) [4]: (76%)
TF [4]: 5886 ± 332 pg/mL
GI50 [12]: 14000 nM
VEGF ([5]; 5 μM, DMSO = 100): 44%
VEGF ELISA ([5]; 5 μM): 1585 pg/ml/well
VEGF [5, 18]: 1866 pg/mL
VEGF ([5]; 20 μM, DMSO = 100): 0%
VEGF ELISA ([5]; 20 μM): 315 pg/ml/well
VEGF ([5]; 20 μM, DMSO control 4197): 0 pg/mL
TF ([13]; 1 μM, DMSO = 100): 113%
TF ([13]; 1 μM, DMSO control 7054): 7966 pg/mL
TF ([13]; 5 μM, DMSO = 100): 25%
TF ELISA ([13]; 5 μM, DMSO control 7054): 1793 pg/ml/well
TF [13, 20]: 1793 pg/mL
VEGF (% of DMSO) ([6]; 20 μM): (29%)
VEGF [6, 19]: 611 ± 248 pg/mL
VEGF ([6]; Table 4, 20 μM, DMSO = 100): 29%
VEGF [6, 17]: 611 ± 248 pg/mL

GI50 [9]: 2100 nM
GI50 [10]: 1900 nM
GI50 [11]: 1800 nM
SMILES: COc1cc(C=C2CSCC(=Cc3ccc(O)c(OC)c3)C2=O)ccc1O [MD283]
GI50 [7]: 1400 nM
GI50 [12]: 3100 nM

GI50 [9]: 1700 nM
SMILES: CC(=O)Oc1ccccc1C=CC(=O)C=Cc1ccccc1OC(C)=O [MD286]
GI50 [7]: 1000 nM
GI50 [12]: 2300 nM
